pEC50: −log10 of the molar value. “Also recorded” adds a separate entry of the source. Bridge positions count the residues as written; N and C are the ends. Ends that are not written are not given here.
Experiments:
[1] = tested on: GLUTag cells; assay: GLP-1 release from GLUTag cells; assay type: cell-based, murine; conditions: 0.01–10 ng/ml; with or without cell washing; 2 h; Fig 6A
Experimental: Intestinal L-cell model GLUTag cells were seeded in 24-well plates coated with Matrigel and incubated for 6 days in DMEM with 10% FBS, 100 U/ml penicillin, 100 μg/ml streptomycin at 37°C in 5% CO2 and grown for 4–5 days. Where indicated, cells were washed (1 or 2 x 1h) with Krebs-HEPES buffer (20 mM HEPES, 118 mM NaCl, 4.7 mM KCl, 1.2 mM MgSO4, 5 mM NaHCO3, 1.2 mM KH2PO4, 2.5 mM CaCl2, 5.5 mM glucose, 0.2% BSA (w/v), pH 7.2) containing vildagliptin (300 μM) prior to addition of test compounds in the same buffer. After 2 h incubation at 37°C in 5% CO2, the supernatant was recovered and centrifuged at 500 rpm for 5 min. Where used, NPS-2143 pre-treatment was for 30 min.
GLP-1 content in the cell supernatant was measured by ELISA (EGLP-35K, Millipore), according to manufacturer’s instructions after overnight incubation of 15 μl supernatant in 100 μl Krebs-HEPES buffer at 4°C. After 5 x washes, 200 μl of detection conjugate was added and incubated for 2 h at RT. After 3 x washes the reaction was developed with 200 μl of diluted substrate (1:200) for 20 min and terminated by addition of 50 μl stop solution. After 5 min, fluorescence was then measured using 355 nm excitation and 460 nm emission, transforming the obtained signal into pmol GLP-1/well/ml and corrected for GLUTag cell protein content as determined using the method of Bradford (1976).
(§1) Concentration-response data were analysed using a three or four parameter logistic function (Motulsky & Christopoulos, 2004) to generate estimates of agonist potency (LogEC50). Data for all HEK293 assays represent the mean ± SEM of at least three independent experiments (except cell impedance, n = 2). For GLP-1 release, the data represent mean ± SEM of three to five independent experiments (except for OCN, wash; n = 2). For insulin release assays, data represent the mean ± SEM of three independent experiments (except for islet studies; n = 2). Insulin release data were normalised to the response to vehicle in either low or high [glucose]. Statistical analysis for GLP-1 release data were performed by one-way ANOVA, followed by Sidak’s multiple comparisons test (treating wash / no wash datasets separately). Statistical analyses for insulin release data were performed by two-way ANOVA (with [glucose] and drug treatment as group variables), followed by Sidak’s multiple comparisons test. Where only high [glucose] groups were evaluated, statistical analysis was by one-way ANOVA followed by Sidak’s multiple comparisons test.

[2] = tested on: β-TC6 cells; assay: Insulin release from β-TC6 cells; assay type: cell-based, murine; conditions: OCN 0.03–100 ng/ml; both glucose concentrations; S3 Fig A
Experimental: (§2) MIN6 or βTC-6 cells were seeded in 24-well plates at 170,000 cells per well in DMEM (containing 4.5g/L glucose, 10 mM HEPES, 100 U/ml penicillin, 100 μg/ml streptomycin and 15% de-complemented FBS) and incubated at 37°C / 5% CO2 for 72 h. Cells were then washed with 500 μl PBS and incubated in 500 μl deprivation media (DMEM with zero glucose, 10 mM HEPES, 1 mM Na-pyruvate, 100 U/ml penicillin, 100 μg/ml streptomycin, 15% de-complemented FBS) for 2 h at 37°C. Media was aspirated and after washing with 500 μl PBS, cells were treated with 250 μl of Krebs buffer (250 mM NaCl, 5.9 mM KCl, 1.2 mM MgCl2, 1.3 mM CaCl2, 25 mM HEPES, 0.1% BSA (w/v), and 2 mM or 16.7 mM glucose; pH 7.4) in the presence or absence of test compound. After incubation for 2 h at 37°C, the assay was terminated by placing the plates on ice and supernatants were transferred to a 96-well plate in preparation for insulin ELISA (Alpco) following manufacturer’s instructions. The cell monolayer was washed twice with 500 μl of PBS and then lysed using 250 μl of 1 N NaOH prior to protein measurement by the method of Bradford (1976).
as §1

[3] = molecular target: T1, mGPRC6A (mouse GPRC6A) (Mus musculus, UniProt Q8K4Z6); assay: Cyclic AMP accumulation, FlpIn-TREx-HEK293-mGPRC6A cells; assay type: cell-based; conditions: 30 min, 0.5 mM IBMX; Alphascreen; Fig 3A
T1 sequence (Q8K4Z6 21-928): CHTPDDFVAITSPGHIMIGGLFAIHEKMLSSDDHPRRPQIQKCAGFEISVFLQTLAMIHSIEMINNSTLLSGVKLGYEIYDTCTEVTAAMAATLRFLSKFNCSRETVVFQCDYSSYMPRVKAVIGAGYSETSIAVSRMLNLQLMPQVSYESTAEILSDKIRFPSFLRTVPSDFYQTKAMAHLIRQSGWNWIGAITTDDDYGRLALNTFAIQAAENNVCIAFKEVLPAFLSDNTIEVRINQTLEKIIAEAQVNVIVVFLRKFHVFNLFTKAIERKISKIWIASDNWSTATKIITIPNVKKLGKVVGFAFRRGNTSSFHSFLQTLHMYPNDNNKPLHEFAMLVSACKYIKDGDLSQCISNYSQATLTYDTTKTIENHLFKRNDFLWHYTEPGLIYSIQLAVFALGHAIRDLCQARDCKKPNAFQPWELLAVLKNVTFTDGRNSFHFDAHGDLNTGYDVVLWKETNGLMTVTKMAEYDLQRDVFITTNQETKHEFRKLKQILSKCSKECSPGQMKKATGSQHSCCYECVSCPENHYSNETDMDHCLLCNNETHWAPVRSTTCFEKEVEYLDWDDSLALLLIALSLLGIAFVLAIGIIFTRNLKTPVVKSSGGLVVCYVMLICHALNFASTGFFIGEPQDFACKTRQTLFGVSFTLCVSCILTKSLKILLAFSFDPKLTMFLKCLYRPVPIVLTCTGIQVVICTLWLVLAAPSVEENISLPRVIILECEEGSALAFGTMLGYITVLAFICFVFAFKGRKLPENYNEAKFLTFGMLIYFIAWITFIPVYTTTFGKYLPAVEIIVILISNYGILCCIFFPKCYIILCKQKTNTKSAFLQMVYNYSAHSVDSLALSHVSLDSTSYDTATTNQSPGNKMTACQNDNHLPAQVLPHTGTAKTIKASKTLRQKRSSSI
Experimental: (§3) pcDNA 5/FRT/TO constructs were isogenically integrated into a FlpIn-TREx-HEK293 cell line (Life Technologies). FlpIn-TREx-HEK293-mGPRC6A and FlpIn-TREx-HEK293-hGPRC6A cells were then selected using 600 μg/ml hygromycin and 5 μg/ml blasticidin and grown in culture medium consisting of Dulbecco’s Modified Eagle Medium (DMEM), supplemented with 10% (v/v) foetal bovine serum (FBS) at 37°C in 5% CO2 and were sub-cultured in a 1:3 ratio every 3–4 days. Cells were cultured overnight in the presence of 1 μg/ml tetracycline to induce GPRC6A expression. […] 48 h after transfection, cells were selected using 3 μg/ml puromycin and grown as above.
HEK293-mGPRC6A cells were seeded at a density of 10^5 cells per well into PDL-coated 96-well plates and incubated overnight in DMEM, supplemented with 10% FBS (v/v) at 37°C in 5% CO2. Cells were then incubated in 90 μl of stimulation buffer (HBSS containing 5 mM HEPES, 0.1% BSA (w/v), 0.5 mM IBMX; pH 7.4) for 30 min at 37°C. Test compounds (10 μl at 10 x final) were added and cells were incubated for an additional 30 min at 37°C. The medium was removed and cells were incubated in 50 μl of ice-cold 100% ethanol. Once evaporated, 100 μl of lysis buffer (5 mM HEPES, 0.1% BSA (w/v), 0.3% Tween-20; pH 7.4) was added to the cells and samples were stored at -20°C until further analysis. Samples were analysed using the Alphascreen® cAMP assay kit (Perkin Elmer) following manufacturer instructions. Briefly, 10 μl of lysates were added to a 384-well Optiplate. After addition of 5 μl of acceptor bead mix, plate was incubated at RT for 30 min followed by addition of 15 μl of donor bead mix. After overnight (16 h) incubation at RT, plates were read using the Envision plate reader.

[4] = tested on: MIN6 cells; assay: Insulin release from MIN6 cells; assay type: cell-based, murine; conditions: mouse OCN 0.03–30 ng/mL, 0.03–100 ng/mL (Fig 6B legend); low and high glucose
Experimental: as §2, §1

[5] = tested on: INS-1(832) cells; assay: Label-free cell impedance, INS-1(832) cells; assay type: cell-based, rat; conditions: Gprc6a-negative; EBSS, 2.8 mM glucose; Fig 7; two-way ANOVA, *P < 0.05, **P < 0.01 vs Vehicle; listed as synthetic mouse OCN
Experimental: For INS-1 cells, 100 μl of medium (RPMI 1640 no glucose, 10% FBS, 55 μM β-mercaptoethanol, 1 mM sodium pyruvate, 10 mM HEPES, 100 U/ml penicillin, 100 μg/ml streptomycin, 11.1 mM glucose) was added per well to an E-plate 96 and a background reading taken. Cells were seeded at 2 x 10^4 / well and the plates incubated in the instrument for 48 h. On the day of the experiment, media was changed to EBSS buffer (180 μl; 2.8 mM glucose, 1.8 mM CaCl2, 5.3 mM KCl, 0.8 mM MgSO4, 117 mM NaCl, 26 mM NaHCO3, 1 mM NaH2PO4). After 2 h incubation, cells were stimulated with 20 μl test compound (10 x final) prepared in the same buffer. Data capture and analysis were as for HEK293 cells.

[6] = molecular target: T1, mGPRC6A (mouse GPRC6A); assay: Ca^2+i mobilisation, FlpIn-TREx-HEK293-mGPRC6A cells; assay type: cell-based
Experimental: as §3
FlpIn-TREx-HEK293-mGPRC6A cells were seeded into T75 flasks at 70% confluency. Cells were transfected with 15μg of plasmid DNA (Gαq or GαqG66D) with Lipofectamine LTX according to manufacturer's instructions, then incubated for 24h at 37°C in 5% CO2. Cells were plated into 96-well plates (10^5 cells/well) and equilibrated at 37°C in 5% CO2 for 4-6h to adhere, whereupon cells were serum starved overnight at 37°C in 5% CO2. For the assay, cells were washed twice in Ca^2+ assay buffer (150 mM NaCl, 2.6 mM KCl, 1.2 mM MgCl2, 10 mM dextrose, 10 mM HEPES, 2.2 mM CaCl2, 0.5% (w/v) BSA and 4 mM probenecid; pH 7.4). Buffer was then replaced with Ca^2+ assay buffer containing 1μM Fluo-4-AM and incubated for 1h at 37°C in 5% CO2. Cells were washed twice more and replaced with Ca^2+ assay buffer at 37°C. Serial dilutions of test agonists were added by injection in a Flexstation™ (Molecular Devices) and fluorescence was measured at 485nm excitation and 520nm emission wavelengths. Agonist responses were normalised to the peak of response to 100 μM ATP.
as §1, with “Data” for “Concentration-response data were analysed using a three or four parameter logistic function (Motulsky & Christopoulos, 2004) to generate estimates of agonist potency (LogEC50). Data”

[7] = tested on: GPRC6A; set-up: method as in PMID 15576628; conditions: chimera with goldfish 5.24 receptor and full length GPRC6A; ref [1]; cited from earlier work

YLYQWLGAPVPYPDPLEPRREVCELNPDCDELADHIGFQEAYRRFYGPV-NH2/-COOH (disulfide) [human synthetic OCN (acid form), synthetic de-carboxylated human osteocalcin, Federation Bioscience]
GLP-1 release, OCN [1]: did not increase GLP-1 release | insulin secretion, OCN [2]: no significant effect

C=C[C@@]1(C)CC(=O)[C@]2(O)[C@@]3(C)[C@@H](O)CCC(C)(C)[C@@H]3[C@H](O)[C@H](OC(C)=O)[C@@]2(C)O1 [forskolin]
stimulation of cAMP accumulation [3]: robust increases in cAMP levels

mouse synthetic OCN: synthetic de-carboxylated mouse osteocalcin, Federation Bioscience (YLGASVPSPDPLEPTREQCELNPACDELSDQYGLKTAYKRIYGITI-OH; disulfide 19-25 (inferred); not fully specified)
insulin secretion, OCN [4]: did not affect insulin secretion | change in cell impedance (cell index) [5]: significant changes in cell impedance; also recorded: Concentration-dependent increases in cell index

NCCCC[C@H](N)C(=O)O [L-lysine]
pEC50 [6]: 4.80 | potency at murine GPRC6A (calcium and inositol phosphate, words) ([6]; calcium mobilisation and inositol phosphate accumulation, Discussion): most potent agonists | rank order of potency, Ca^2+ mobilisation ([6]; co-expressing GαqG66D, Fig 1D): L-ornithine > L-arginine = L-lysine | agonist response of GPRC6A [7]: mediates responses to L-amino acids
